# Tests used:
# Yeast/mold = assay: Types of microbes at RO membrane after treatment (membrane autopsy): yeast/mold; assay type: cell-based; details: on RO membrane after 30 days of exposure to the biocide
# Experimental: (§1) Marsh water was fed into a storage tank via a 1200-foot long (365 m) hose. A biocide was added to the hose at a point 20 feet (6.1 m) before the hose connection to the storage tank. Water was fed from the storage tank to a reverse osmosis (RO) system equipped with an ultrafiltration (UF) membrane upstream of an RO membrane. In this system, the UF membrane was a non-protected membrane and the RO membrane was a protected membrane. An oxidation-reduction potential (ORP) electrode was in the water at a point upstream of and near the RO membrane, and the ORP electrode was connected to an ORP controller unit (ORP electrode: RD2, Hach Company). Measurements from the ORP were monitored, and the reducing agent was pumped into the RO system downstream of the ORP electrode as needed as indicated by the ORP reading from the ORP electrode. […]
# (§2) The water was sampled at various times upstream of and near the UF membrane, and the water was also sampled at various times upstream of and near the RO membrane. […] Functionality of the RO membrane, types of microbes at RO membrane after treatment, biocide efficacy on microbes in water, and biocide efficacy for biofilm growth were determined. […]
# microbes in water = assay: Biocide efficacy on microbes in water (planktonic biocidal reduction, marsh water); assay type: cell-based
# Experimental: Marsh water was fed into a storage tank via a 1200-foot long (365 m) hose. A biocide was added to the hose at a point 20 feet (6.1 m) before the hose connection to the storage tank. Water was fed from the storage tank to a reverse osmosis (RO) system equipped with an ultrafiltration (UF) membrane upstream of an RO membrane. In this system, the UF membrane was a non-protected membrane and the RO membrane was a protected membrane. An oxidation-reduction potential (ORP) electrode was in the water at a point upstream of and near the RO membrane, and the ORP electrode was connected to an ORP controller unit (ORP electrode: RD2, Hach Company). Measurements from the ORP were monitored, and the reducing agent was pumped into the RO system downstream of the ORP electrode as needed as indicated by the ORP reading from the ORP electrode.
# The biocides tested were bleach, 1,3-dibromo-5,5-dimethylhydantoin (Br2DMH; Albemarle Corporation), and an aqueous solution formed from bromine chloride and sulfamic acid containing over 50,000 ppm of active halogen having a pH in the range of 13 to 14 (BrCl/sulfamic acid; STABROM® 909 biocide, Albemarle Corporation). The reducing agent used with each biocide was […].
# The water was sampled at various times upstream of and near the UF membrane, and the water was also sampled at various times upstream of and near the RO membrane. The duration of testing for each biocide was approximately 30 days. Functionality of the RO membrane, types of microbes at RO membrane after treatment, biocide efficacy on microbes in water, and biocide efficacy for biofilm growth were determined.
# For the data in Table 3, the water was sampled upstream of and near the UF membrane, and upstream of and near the RO membrane The data in Table 3 are an average of samples from several days for planktonic biocidal reduction.
# Aerobic bacteria = assay: Types of microbes at RO membrane after treatment (membrane autopsy): aerobic bacteria; assay type: cell-based; details: on RO membrane after 30 days of exposure to the biocide
# Experimental: as §1, §2
# biofilm = assay: Biofilm coupon test with modified Robbins device (ATP, RLU); assay type: cell-based, bacteria; details: water upstream of and near the RO membrane; average of 3 or 4 coupons
# Experimental: as §1, §2
# [1] = untreated water to RO feed water
structure (smiles),measurement,setting,value
"CC1(C)C(=O)N(Br)C(=O)N1Br [Br2DMH, 1,3-dibromo-5,5-dimethylhydantoin]",Yeast/mold rating,Yeast/mold,Low (0 to 100)
same,"Log reduction, total (untreated to RO)",microbes in water; [1],2.1
same,"Reduction, total (untreated to RO)",microbes in water; [1],99.2%
same,RO feed water,"microbes in water; water sampled upstream of and near the RO membrane, average of samples from several days",2.2 log cfu/mL
same,UF feed water,"microbes in water; water sampled upstream of and near the UF membrane, average of samples from several days",3.1 log cfu/mL
same,Aerobic bacteria rating,Aerobic bacteria,"High (10,000 to 1,000,000)"
same,ATP on Polyamide coupon,biofilm,5825 RLU
